Twelve molecules from patent US20230348540A1, “Viral multimeric peptide constructs for targeting PDZ domains” (University of Copenhagen, priority 2020, published 2023) can be followed below.

Peptide text beside a SMILES is read from it. * marks the point of attachment. Biotin = O=C1N[C@H]2[C@H](CS[C@H]2CCCCC(=O)*)N1; Ahx = NCCCCCC(=O)O

Data set [1] concerns the target T1, PICK1 (Rattus norvegicus, UniProt Q9EP80).
T1 construct: Full length rat PICK1 (pET41) was prepared as described earlier; inferred from pET41 and glutathione-Sepharose capture) (N, cleaved yes); made in house; host or cells: E. coli BL21-DE3-pLysS
Nature of the data set: Fluorescence Polarization for PICK1 (Example 8). The following applies: in words, FIG. 17. The class given is binding. As for the experimental part: The plates were incubated 30-40 min on ice and the fluorescence polarization was measured on an Omega POLARstar plate (BMG LABTECH) reader using excitation filter at 485 nm and long pass emission filter at 520 nm. The data was plotted using GraphPad Prism 8.3, and fitted to the ‘One site—Fit’ Ki competition curve, to extract apparent KI values.
In general terms: Polarisation of emitted light reports the rotation of a fluorescent probe.

Data set [2] is described as follows: SEC-MALS of peptides (oligomeric state). The class given is physicochemical. The following applies: 50 μL of 1000 μM peptide, Example 7. As for the experimental part: Size exclusion chromatography Multi angle light scattering (SEC-MALS): was done using an Agilent HPLC equipped with a Wyatt MALS setup, where 50 μL of 1000 μM, of indicated peptide, was loaded onto a Superdex200 Increase 10/300 column. Resulting data was analyzed and molecular weight was calculated using the ASTRA® software package, data was plotted using GraphPad Prism 8.3.
On the technique in general: SEC sorts molecules by how far they enter the pores of the column.

Data set [3] deals with T2, PSD-95 PDZ12 (Homo sapiens, UniProt P78352).
T2 construct: Fluorescence polarization for PSD-95 (FL and PDZ12)
Description: Fluorescence polarization for PSD-95 PDZ12 (Example 8). It counts as binding. The following applies: in words, FIG. 18. As for the experimental part: Fluorescence polarization for PSD-95 (FL and PDZ12): Fluorescence polarization was carried out in competition mode at a fixed concentration of protein (150 nM) and tracer (5[…], 5 nM), against an increasing concentration of unlabeled peptide.

Data set [4] has as its target T3, FL-PSD-95 (Homo sapiens, UniProt P78352).
T3 construct: TRX-6xHis-hPSD95 1-724 encoding plasmid; TRX (thioredoxin) (N); 6xHis (N); made in house; host or cells: E. coli BL21-DE3-pLysS
Description: Size exclusion chromatography of PSD-95 in absence or presence of peptide. The following applies: 10 μM FL-PSD-95, 50 μM peptide, Example 8. On the procedure:
(§1) Size exclusion chromatography: was done using a Äkta purifier with a Superdex200 Increase 10/300 column, where, 500 μL of 30 μM PICK1 or 200 μL 10 uM of FL-PSD-95 in absence or presence of peptides was loaded. Absorbance profile was measured at 280 nm and plotted against elution volume using Graph Pad Prism 8.3.

Data set [5] addresses T2, PSD-95 PDZ12. Nature of the data set: Confocal microscopy on liquid-liquid phase separation droplets, PSD-95 PDZ1-2 (Example 8). The following applies: 100 μM PSD-95 PDZ1-2.
Description: Images were acquired using averaging of 4 line scans and 12-bit. The liquid-liquid phase separation droplets were prepared in the desired concentration in Phosphate buffered Saline supplemented with 1 mM TCEP (PBS-TCEP) and added to an untreated lab tec (155411PK) and imaged after being allowed to settle for 5 min at 25° C. For samples containing fluorescent protein or peptide the content of fluorescent protein or peptide was kept at 1% of indicated total protein or peptide concentration.
Data set [6] has as its target T1, PICK1. Nature of the data set: Size exclusion chromatography of PICK1 in absence or presence of peptide. The following applies: 30 μM PICK1, 50 μM peptide, Example 8. On the procedure: Absorbance profiles were measured at 280 nm and plotted against elution volume using Graph Pad Prism 8.3.
as §1

In data set [7] the target is T1, PICK1. Nature of the data set: Fluorescence polarization competition of HWLKV substitution peptide libraries (Example 6). It counts as binding. The following applies: relative to HWLKV, tracer 5FAM-HWLKV 20 nM, FIG. 7, in words. On the procedure:
Fluorescence polarization: Fluorescence polarization was carried out in competition mode at a fixed concentration of protein and tracer (5[…], 20 nM), against an increasing concentration of indicated unlabeled peptide. The plate was incubated 20 min on ice in a black half-area Corning Black non-binding surface 96-well plate and the fluorescence polarization was measured directly on a Omega POLARstar plate reader using excitation filter at 488-nm and long pass emission filter at 535-nm.

The target of data set [8] is T4, PSD-95 (Homo sapiens, UniProt P78352).
T4 construct: TRX-6xHis-hPSD95 1-724 encoding plasmid; TRX (thioredoxin) (N); 6xHis (N); made in house; host or cells: E. coli BL21-DE3-pLysS
Description: SDS-PAGE sedimentation assay. The following applies: 3 μM PSD-95, 12 μM or 36 μM peptide.
Description: SDS-PAGE sedimentation assay: Proteins were mixed in the desired concentration in PBS-TCEP and equilibrated for 10 min before centrifugation at 20 000 g for 15 min at 25° C. using a temperature controlled table top centrifuge. Following centrifugation the supernatant was collected and the pellet was re-suspended in an equal amount of PBS-TCEP, usually 50 μL. To ensure proper resuspension of LLPS, the samples were vortexed before addition of SDS buffer followed by boiling at 95° C. for 5 min. Supernatant and pellet fractions were run on any kD™ Mini-PROTEAN® TGX™ Precast Protein Gels (10 or 15 wells, BioRad 4569036 or 4569033). Gels were imaged using a Li-COR Odyssey gel scanner and band intensities were analyzed using ImageJ.

T2 sequence (P78352 61-249 limits assumed): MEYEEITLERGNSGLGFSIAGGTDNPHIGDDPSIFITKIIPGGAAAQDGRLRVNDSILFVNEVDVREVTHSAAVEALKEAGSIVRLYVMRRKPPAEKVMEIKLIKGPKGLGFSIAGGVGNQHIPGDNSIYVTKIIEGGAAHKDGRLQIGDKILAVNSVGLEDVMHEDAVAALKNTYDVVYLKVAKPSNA
T1 sequence (Q9EP80 whole entry): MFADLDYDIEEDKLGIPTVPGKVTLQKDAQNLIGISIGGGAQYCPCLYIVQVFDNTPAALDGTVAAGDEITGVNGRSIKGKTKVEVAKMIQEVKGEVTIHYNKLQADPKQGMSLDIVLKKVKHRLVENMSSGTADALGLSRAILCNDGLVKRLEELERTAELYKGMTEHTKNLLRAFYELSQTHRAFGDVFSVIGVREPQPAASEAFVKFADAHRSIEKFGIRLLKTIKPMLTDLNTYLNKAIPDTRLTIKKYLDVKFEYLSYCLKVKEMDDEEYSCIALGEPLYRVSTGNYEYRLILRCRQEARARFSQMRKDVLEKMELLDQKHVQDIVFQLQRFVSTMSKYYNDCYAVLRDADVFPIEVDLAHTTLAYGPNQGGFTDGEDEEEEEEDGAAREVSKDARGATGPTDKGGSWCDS
T3 sequence (P78352 whole entry): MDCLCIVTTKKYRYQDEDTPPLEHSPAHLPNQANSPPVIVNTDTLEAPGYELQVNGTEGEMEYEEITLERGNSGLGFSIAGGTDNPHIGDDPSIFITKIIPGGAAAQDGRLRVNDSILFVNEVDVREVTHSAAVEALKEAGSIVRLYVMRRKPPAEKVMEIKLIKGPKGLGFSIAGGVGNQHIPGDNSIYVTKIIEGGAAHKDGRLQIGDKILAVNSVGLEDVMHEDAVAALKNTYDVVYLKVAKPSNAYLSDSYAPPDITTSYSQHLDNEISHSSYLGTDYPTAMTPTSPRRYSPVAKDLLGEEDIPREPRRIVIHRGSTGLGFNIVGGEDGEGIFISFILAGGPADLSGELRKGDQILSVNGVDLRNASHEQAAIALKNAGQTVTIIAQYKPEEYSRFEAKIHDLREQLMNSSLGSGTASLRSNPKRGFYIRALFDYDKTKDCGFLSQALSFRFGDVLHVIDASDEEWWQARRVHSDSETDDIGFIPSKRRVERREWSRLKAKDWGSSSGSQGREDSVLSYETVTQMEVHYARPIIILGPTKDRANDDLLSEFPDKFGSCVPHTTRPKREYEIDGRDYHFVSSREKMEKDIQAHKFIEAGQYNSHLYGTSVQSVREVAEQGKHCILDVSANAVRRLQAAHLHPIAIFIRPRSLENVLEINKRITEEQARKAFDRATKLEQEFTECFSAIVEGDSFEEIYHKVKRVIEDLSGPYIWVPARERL
T4 sequence (P78352 whole entry): as above

As to `CC[C@H](C)[C@H](NC(=O)[C@H](CCC(=O)O)NC(=O)CNC(=O)CCCCCNC(=O)CCCC[C@@H]1SC[C@@H]2NC(=O)N[C@@H]21)C(=O)N[C@@H](C)C(=O)N[C@@H](CCCCN)C(=O)N[C@@H](CO)C(=O)N[C@@H](CC(C)C)C(=O)N[C@@H](CCCCN)C(=O)N[C@@H](CCC(=O)O)C(=O)N[C@H](C(=O)N[C@@H](C)C(=O)N[C@@H](CCCCN)C(=O)N[C@@H](CO)C(=O)N[C@@H](CC(C)C)C(=O)N[C@@H](CCCCN)C(=O)N[C@@H](CCC(=O)O)C(=O)N[C@H](C(=O)N[C@@H](C)C(=O)N[C@@H](Cc1c[nH]c2ccccc12)C(=O)N[C@@H](CO)C(=O)N[C@@H](CC(C)C)C(=O)N[C@@H](CCCCN)C(=O)N[C@@H](CCC(=O)O)C(=O)N[C@H](C(=O)N[C@@H](C)C(=O)N[C@@H](CCCCN)C(=O)N[C@@H](CO)C(=O)N[C@@H](CC(C)C)C(=O)N[C@@H](CCCCN)C(=O)NCC(=O)NCC(=O)NCC(=O)NCC(=O)N[C@@H](CO)C(=O)N[C@@H](Cc1c[nH]cn1)C(=O)N[C@@H](Cc1c[nH]c2ccccc12)C(=O)N[C@@H](CC(C)C)C(=O)N[C@@H](CCCCN)C(=O)N[C@H](C(=O)O)C(C)C)[C@@H](C)CC)[C@@H](C)CC)[C@@H](C)CC` [CC-Hex2-GS4-HWLKV] ({Biotin-Ahx}-GEIAKSLKEIAKSLKEIAWSLKEIAKSLKGGGGSHWLKV-OH; C-terminus assumed), in data set [1], the “binding affinity to PICK1 as compared to the dimeric GCN4p1-GS4-HWLKV” value is “superior binding affinity”. The “oligomeric configuration (SEC-MALS)” value in data set [2] is on record as “hexameric configuration”.

For `CC[C@H](C)[C@H](NC(=O)[C@H](CCC(=O)O)NC(=O)CNC(=O)CCCCCNC(=O)CCCC[C@@H]1SC[C@@H]2NC(=O)N[C@@H]21)C(=O)N[C@@H](C)C(=O)N[C@@H](CCCCN)C(=O)N[C@@H](CO)C(=O)N[C@@H](CC(C)C)C(=O)N[C@@H](CCCCN)C(=O)N[C@@H](CCC(=O)O)C(=O)N[C@H](C(=O)N[C@@H](C)C(=O)N[C@@H](CCCCN)C(=O)N[C@@H](CO)C(=O)N[C@@H](CC(C)C)C(=O)N[C@@H](CCCCN)C(=O)N[C@@H](CCC(=O)O)C(=O)N[C@H](C(=O)N[C@@H](C)C(=O)N[C@@H](Cc1c[nH]c2ccccc12)C(=O)N[C@@H](CO)C(=O)N[C@@H](CC(C)C)C(=O)N[C@@H](CCCCN)C(=O)N[C@@H](CCC(=O)O)C(=O)N[C@H](C(=O)N[C@@H](C)C(=O)N[C@@H](CCCCN)C(=O)N[C@@H](CO)C(=O)N[C@@H](CC(C)C)C(=O)N[C@@H](CCCCN)C(=O)NCC(=O)NCC(=O)NCC(=O)NCC(=O)N[C@@H](CO)C(=O)N[C@H](C(=O)N[C@@H](CCC(=O)O)C(=O)N[C@H](C(=O)N[C@@H](CC(=O)O)C(=O)N[C@H](C(=O)O)C(C)C)[C@@H](C)O)[C@@H](C)CC)[C@@H](C)CC)[C@@H](C)CC)[C@@H](C)CC` [CC-Hex2-GS4-IETDV] ({Biotin-Ahx}-GEIAKSLKEIAKSLKEIAWSLKEIAKSLKGGGGSIETDV-OH; C-terminus assumed), in data set [3], the “binding affinity towards PSD95 PDZ1-2” value was “high binding affinity”. Further, in data set [4], the “formation of higher order oligomers of PSD-95 (SEC)” value was “ability to form higher order oligomers of PSD-95”.

As to `CC[C@H](C)[C@H](NC(=O)[C@H](CCC(=O)O)NC(=O)CNC(=O)CCCCCNC(=O)CCCC[C@@H]1SC[C@@H]2NC(=O)N[C@@H]21)C(=O)N[C@@H](C)C(=O)N[C@@H](CCCCN)C(=O)N[C@@H](CO)C(=O)N[C@@H](CC(C)C)C(=O)N[C@@H](CCCCN)C(=O)N[C@@H](CCC(=O)O)C(=O)N[C@H](C(=O)N[C@@H](C)C(=O)N[C@@H](CCCCN)C(=O)N[C@@H](CO)C(=O)N[C@@H](CC(C)C)C(=O)N[C@@H](CCCCN)C(=O)N[C@@H](CCC(=O)O)C(=O)N[C@H](C(=O)N[C@@H](C)C(=O)N[C@@H](Cc1c[nH]c2ccccc12)C(=O)N[C@@H](CO)C(=O)N[C@@H](CC(C)C)C(=O)N[C@@H](CCCCN)C(=O)N[C@@H](CCC(=O)O)C(=O)N[C@H](C(=O)N[C@@H](C)C(=O)N[C@@H](CCCCN)C(=O)N[C@@H](CO)C(=O)N[C@@H](CC(C)C)C(=O)N[C@@H](CCCCN)C(=O)NCC(=O)NCC(=O)NCC(=O)NCC(=O)N[C@@H](CO)C(=O)N[C@@H](CCCNC(=N)N)C(=O)N[C@@H](CCCNC(=N)N)C(=O)N[C@H](C(=O)N[C@H](C(=O)N1CCC[C@H]1C(=O)N[C@H](C(=O)O)C(C)C)[C@@H](C)O)[C@@H](C)O)[C@@H](C)CC)[C@@H](C)CC)[C@@H](C)CC` [CC-Hex2-GS4-RRTTPV] ({Biotin-Ahx}-GEIAKSLKEIAKSLKEIAWSLKEIAKSLKGGGGSRRTTPV-OH; C-terminus assumed), the “binding affinity towards PSD95 PDZ1-2” value in data set [3] is given as “high binding affinity”. Also, the “formation of higher order oligomers of PSD-95 (SEC)” value in data set [4] is listed as “Formation of higher order oligomers of PSD-95 was also observed”. Further, the “threshold for LLPS formation of PSD-95 PDZ1-2 versus dimeric GCN4p1-GS4-RRTTPV” value in data set [5] is reported as “lowered thresholds for LLPS formation”.

In the case of `CC[C@H](C)[C@H](NC(=O)[C@H](C)NC(=O)[C@H](C)NC(=O)[C@H](CC(C)C)NC(=O)[C@H](CCC(=O)O)NC(=O)[C@H](Cc1c[nH]c2ccccc12)NC(=O)[C@H](CCCCN)NC(=O)[C@@H](NC(=O)[C@H](C)NC(=O)[C@H](C)NC(=O)[C@H](CC(C)C)NC(=O)[C@H](CCC(=O)O)NC(=O)[C@H](CCCCN)NC(=O)[C@H](CCCCN)NC(=O)[C@@H](NC(=O)[C@H](C)NC(=O)[C@H](C)NC(=O)[C@H](CC(C)C)NC(=O)[C@H](CCC(=O)O)NC(=O)[C@H](CCC(N)=O)NC(=O)[C@H](CCCCN)NC(=O)[C@@H](NC(=O)[C@H](C)NC(=O)[C@H](C)NC(=O)[C@H](CC(C)C)NC(=O)[C@H](CCC(=O)O)NC(=O)CNC(=O)CCCCCNC(=O)CCCC[C@@H]1SC[C@@H]2NC(=O)N[C@@H]21)[C@@H](C)CC)[C@@H](C)CC)[C@@H](C)CC)C(=O)N[C@@H](CCCCN)C(=O)N[C@@H](CCC(N)=O)C(=O)NCC(=O)NCC(=O)NCC(=O)NCC(=O)N[C@@H](CO)C(=O)N[C@@H](Cc1c[nH]cn1)C(=O)N[C@@H](Cc1c[nH]c2ccccc12)C(=O)N[C@@H](CC(C)C)C(=O)N[C@@H](CCCCN)C(=O)N[C@H](C(=O)O)C(C)C` [CC-Tet-GS4-HWLKV] ({Biotin-Ahx}-GELAAIKQELAAIKKELAAIKWELAAIKQGGGGSHWLKV-OH; C-terminus assumed), the “oligomeric configuration (SEC-MALS)” value in data set [2] is on record as “trimeric configuration”. Also, the “formation of higher order oligomers of PICK1 (SEC)” value in data set [6] is on record as “ability to form higher order oligomers of PICK1”.

Consider EIRV (DAT C5 VARIANT), for which the “Fold affinity change of combinatorial peptide library” value (shortened to “Fold affinity change”) in data set [7] is recorded as “optimal 4-mer sequences”.

For “GEIAKSLKEIAKSLKEIAWSLKEIAKSLKGGGGSNSVRV (CC-Hex2-GS4-NSVRV)”, the “binding affinity to PICK1 as compared to the dimeric GCN4p1-GS4-HWLKV” value in data set [1] is “superior binding affinity”.

IIV [DAT-C5 variant]: the “Fold affinity change” value in data set [7] is “optimal 3-mer sequences”.

On to IRV [DAT-C5 variant], for which the “Fold affinity change” value in data set [7] was “optimal 3-mer sequences”.

In the case of NSVRV (DAT C5 VARIANT), in data set [7], the “Fold affinity change” value was “optimal 5-mer sequences”.

Turning to SNTANRRTTPV (RRTTPV monomer), the “distribution of PSD-95 between supernatant and pellet” value in data set [8] is on record as “the majority of PSD-95 is found in the supernatant”.

As for TSIRV (DAT C5 VARIANT), in data set [7], the “Fold affinity change” value was “optimal 5-mer sequences”.

For the molecule YIIV (DAT C5 VARIANT), the “Fold affinity change” value in data set [7] is on record as “optimal 4-mer sequences”.
